“And” between values parts separate entries of the source, which are not always exact repeats. Identical values can stand only once. The source made the active and inactive calls.
Assays:
Insulin-degrading enzyme [1] = target: T1, Insulin-degrading enzyme (Homo sapiens, UniProt P14735); assay: activators of recombinant IDE enzyme, dose response, counter-screen for IDE activator project, biochemical, fluorescence polarization (AID 588681)
T1 sequence (P14735 whole entry): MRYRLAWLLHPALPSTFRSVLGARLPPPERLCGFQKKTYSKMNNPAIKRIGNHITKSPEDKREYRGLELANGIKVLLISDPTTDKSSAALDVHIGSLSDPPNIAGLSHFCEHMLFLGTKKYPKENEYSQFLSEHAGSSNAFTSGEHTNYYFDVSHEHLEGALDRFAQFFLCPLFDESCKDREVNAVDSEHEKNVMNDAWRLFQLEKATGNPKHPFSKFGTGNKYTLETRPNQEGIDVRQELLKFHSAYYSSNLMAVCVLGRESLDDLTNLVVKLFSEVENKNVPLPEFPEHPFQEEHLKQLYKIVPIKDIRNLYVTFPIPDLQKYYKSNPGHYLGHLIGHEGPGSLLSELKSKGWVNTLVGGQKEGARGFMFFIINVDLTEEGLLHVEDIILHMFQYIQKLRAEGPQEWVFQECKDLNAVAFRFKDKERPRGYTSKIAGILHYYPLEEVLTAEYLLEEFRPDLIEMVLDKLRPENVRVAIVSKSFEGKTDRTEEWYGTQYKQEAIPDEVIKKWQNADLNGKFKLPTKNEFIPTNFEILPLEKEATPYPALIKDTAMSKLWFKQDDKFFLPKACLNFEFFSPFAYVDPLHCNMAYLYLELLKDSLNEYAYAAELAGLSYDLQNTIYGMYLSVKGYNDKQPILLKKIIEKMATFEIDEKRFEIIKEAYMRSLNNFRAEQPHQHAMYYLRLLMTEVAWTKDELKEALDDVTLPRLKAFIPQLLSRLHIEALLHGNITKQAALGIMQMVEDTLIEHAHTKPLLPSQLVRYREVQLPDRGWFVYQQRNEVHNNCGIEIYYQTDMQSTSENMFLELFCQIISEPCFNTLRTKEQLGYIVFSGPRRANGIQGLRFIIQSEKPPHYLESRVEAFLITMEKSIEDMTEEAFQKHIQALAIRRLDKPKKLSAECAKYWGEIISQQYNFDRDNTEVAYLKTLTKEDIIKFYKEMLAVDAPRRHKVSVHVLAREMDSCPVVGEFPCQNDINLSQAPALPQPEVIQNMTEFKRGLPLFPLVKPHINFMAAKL

Insulin-degrading enzyme [2] = target: T1, Insulin-degrading enzyme; assay: activators of endogenous IDE in HEK cells, dose response, cell-based, fluorescence polarization (AID 588439); type: functional
HEK293 [3] = assay: HEK cell cytotoxicity by LDH release, dose response, cytotoxicity control for IDE activator project, fluorescence, HEK cells (AID 588440); type: functional, cell-based; conditions: Homo sapiens;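 also: cytotoxicity by LDH release measuring loss of membrane integrity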
HEK293 [4] = assay: optical interference in Abeta FP readout, dose response, artefact control for IDE activator project, biochemical, fluorescence polarization (AID 588442); type: functional, cell-based; conditions: Homo sapiens
[5] = target: Protein disulfide-isomerase (Homo sapiens, UniProt P07237); assay: PDI inhibitors, insulin aggregation turbidity, dose response, biochemical, absorbance, cherry-picked samples (AID 602350); type: functional
Sequence of Protein disulfide-isomerase (P07237 whole entry): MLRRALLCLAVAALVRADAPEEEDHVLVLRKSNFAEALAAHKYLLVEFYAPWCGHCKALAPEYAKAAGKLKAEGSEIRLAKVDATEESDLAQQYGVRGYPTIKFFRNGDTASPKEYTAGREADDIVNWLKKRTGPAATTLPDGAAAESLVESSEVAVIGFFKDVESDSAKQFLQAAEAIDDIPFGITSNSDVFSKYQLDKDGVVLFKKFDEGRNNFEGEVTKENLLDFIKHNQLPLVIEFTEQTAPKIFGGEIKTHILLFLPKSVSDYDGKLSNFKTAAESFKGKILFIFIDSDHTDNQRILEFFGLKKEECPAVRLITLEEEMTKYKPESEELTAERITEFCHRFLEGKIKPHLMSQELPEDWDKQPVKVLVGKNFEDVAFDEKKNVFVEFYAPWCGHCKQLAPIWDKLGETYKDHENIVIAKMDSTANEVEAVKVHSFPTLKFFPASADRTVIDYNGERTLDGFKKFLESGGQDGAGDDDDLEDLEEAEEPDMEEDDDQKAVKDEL

[6] = target: Beta-2 adrenergic receptor (Homo sapiens, UniProt P07550); assay: beta2AR agonists driving receptor internalization, dose response, cell-based, FAP fluorogen, flow cytometry, cherry pick 1 (AID 588763); type: functional
Sequence of Beta-2 adrenergic receptor (P07550 whole entry): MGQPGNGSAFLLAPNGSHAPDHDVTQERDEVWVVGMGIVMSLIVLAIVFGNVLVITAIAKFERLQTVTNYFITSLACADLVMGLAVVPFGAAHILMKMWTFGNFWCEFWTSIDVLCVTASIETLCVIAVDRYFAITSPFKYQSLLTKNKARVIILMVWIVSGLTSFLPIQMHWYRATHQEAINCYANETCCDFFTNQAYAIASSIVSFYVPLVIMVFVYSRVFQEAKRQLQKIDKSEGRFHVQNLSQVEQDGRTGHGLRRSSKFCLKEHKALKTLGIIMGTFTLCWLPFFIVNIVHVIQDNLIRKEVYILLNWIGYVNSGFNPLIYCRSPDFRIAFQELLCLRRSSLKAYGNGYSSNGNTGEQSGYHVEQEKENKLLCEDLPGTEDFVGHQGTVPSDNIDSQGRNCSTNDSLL

Vero = Vero cell cytotoxicity, cytotoxicity control for flavivirus capping enzyme inhibitors (AID 588742); type: functional; conditions: Chlorocebus sabaeus
Genome polyprotein = Genome polyprotein (dengue virus type 2, UniProt P29990); assay: Dengue-2 NS5 methyltransferase inhibitors, primary screen, biochemical, confirmation dose response (AID 588689); type: functional
Sequence of Genome polyprotein (P29990 2492-3391 limits assumed): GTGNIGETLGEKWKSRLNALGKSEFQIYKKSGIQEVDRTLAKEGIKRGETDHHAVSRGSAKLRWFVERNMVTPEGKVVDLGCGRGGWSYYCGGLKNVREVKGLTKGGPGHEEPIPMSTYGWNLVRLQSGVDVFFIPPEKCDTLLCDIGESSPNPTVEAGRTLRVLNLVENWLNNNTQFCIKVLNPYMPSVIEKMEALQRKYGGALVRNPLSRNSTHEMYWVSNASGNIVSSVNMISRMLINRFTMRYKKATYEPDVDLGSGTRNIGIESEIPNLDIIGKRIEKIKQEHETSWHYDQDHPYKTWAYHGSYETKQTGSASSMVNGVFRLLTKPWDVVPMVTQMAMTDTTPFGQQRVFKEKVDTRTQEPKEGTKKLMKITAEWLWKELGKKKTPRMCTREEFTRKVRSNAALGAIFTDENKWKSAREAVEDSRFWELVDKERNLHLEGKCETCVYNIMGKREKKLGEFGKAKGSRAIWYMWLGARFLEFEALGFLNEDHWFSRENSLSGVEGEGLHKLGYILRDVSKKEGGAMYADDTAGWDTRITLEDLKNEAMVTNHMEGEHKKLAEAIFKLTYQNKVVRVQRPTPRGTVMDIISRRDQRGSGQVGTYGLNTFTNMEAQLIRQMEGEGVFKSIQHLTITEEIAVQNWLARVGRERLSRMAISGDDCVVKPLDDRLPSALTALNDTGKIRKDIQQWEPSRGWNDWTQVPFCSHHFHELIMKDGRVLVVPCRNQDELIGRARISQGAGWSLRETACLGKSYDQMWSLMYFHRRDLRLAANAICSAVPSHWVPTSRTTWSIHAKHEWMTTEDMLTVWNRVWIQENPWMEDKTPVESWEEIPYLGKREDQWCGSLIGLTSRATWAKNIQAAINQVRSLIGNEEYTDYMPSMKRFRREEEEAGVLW

[7] = inhibitors of intracellular T. cruzi replication, confirmation, NIH3T3 host cells, beta-gal luminescence (AID 2044); type: functional, cell-based;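 also: intracellular parasites grown in NIH/3T3 mouse fibroblasts as host cells; luminescent beta-galactosidase reporter signal from transgenic T. cruzi replicating inside host cells; inhibitors lower the luminescence signal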
[8] = cytotoxicity toward NIH3T3 fibroblasts, dose response, counter-screen, cell-based, ATP luminescence, mouse fibroblasts (AID 2010); type: functional;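 also: cells exposed to compound for about 90 hours before reading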
[9] = Luminescence Cell-Based Dose Confirmation HTS to Identify Activators of 5'UTR Stem-Loop Driven Alpha-Synuclein mRNA Translation in H4 Neuroglioblastoma Cells. [Related pubchem assays: 1829 (Project Summary), 1814 (Primary HTS)]; type: functional
[10] = Luminescence Cell-Based Dose Response HTS to Identify Activators of Luciferase Translation or Activity in H4 […] Cells. [Related pubchem assays: 1829 (Project Summary), 1814 (Primary HTS)]; type: functional
H4 = assay: Luminescence Cell-Based Dose Response HTS to Identify Activators of 5'UTR Stem-Loop Driven Prion Protein mRNA Translation in H4 Neuroglioblastoma Cells. [Related pubchem assays: 1829 (Project Summary), 1814 (Primary HTS)]; type: functional; conditions: Homo sapiens
CAAX prenyl protease 2 [11] = target: T2, CAAX prenyl protease 2 (Saccharomyces cerevisiae S288c, UniProt Q03530); type: biochemical
T2 sequence (Q03530 whole entry): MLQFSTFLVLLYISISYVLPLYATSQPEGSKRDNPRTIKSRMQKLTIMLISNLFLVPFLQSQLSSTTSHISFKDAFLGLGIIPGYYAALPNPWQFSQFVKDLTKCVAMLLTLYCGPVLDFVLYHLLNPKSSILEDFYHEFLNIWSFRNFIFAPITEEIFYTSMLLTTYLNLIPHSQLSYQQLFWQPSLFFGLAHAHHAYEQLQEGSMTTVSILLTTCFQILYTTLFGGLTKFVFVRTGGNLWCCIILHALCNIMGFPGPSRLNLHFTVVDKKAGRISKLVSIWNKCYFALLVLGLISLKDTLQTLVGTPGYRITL

Protein RecA = target: T3, Protein RecA (Mycobacterium tuberculosis, UniProt P9WHJ3); assay: Fluorescence Cell-Free Homogeneous Dose Retest to Identify Inhibitors of RecA-Intein Splicing Activity. [Related pubchem assays (depositor defined):AID2097, AID2223, AID489010, AID492950]; type: functional
T3 sequence (P9WHJ3 whole entry): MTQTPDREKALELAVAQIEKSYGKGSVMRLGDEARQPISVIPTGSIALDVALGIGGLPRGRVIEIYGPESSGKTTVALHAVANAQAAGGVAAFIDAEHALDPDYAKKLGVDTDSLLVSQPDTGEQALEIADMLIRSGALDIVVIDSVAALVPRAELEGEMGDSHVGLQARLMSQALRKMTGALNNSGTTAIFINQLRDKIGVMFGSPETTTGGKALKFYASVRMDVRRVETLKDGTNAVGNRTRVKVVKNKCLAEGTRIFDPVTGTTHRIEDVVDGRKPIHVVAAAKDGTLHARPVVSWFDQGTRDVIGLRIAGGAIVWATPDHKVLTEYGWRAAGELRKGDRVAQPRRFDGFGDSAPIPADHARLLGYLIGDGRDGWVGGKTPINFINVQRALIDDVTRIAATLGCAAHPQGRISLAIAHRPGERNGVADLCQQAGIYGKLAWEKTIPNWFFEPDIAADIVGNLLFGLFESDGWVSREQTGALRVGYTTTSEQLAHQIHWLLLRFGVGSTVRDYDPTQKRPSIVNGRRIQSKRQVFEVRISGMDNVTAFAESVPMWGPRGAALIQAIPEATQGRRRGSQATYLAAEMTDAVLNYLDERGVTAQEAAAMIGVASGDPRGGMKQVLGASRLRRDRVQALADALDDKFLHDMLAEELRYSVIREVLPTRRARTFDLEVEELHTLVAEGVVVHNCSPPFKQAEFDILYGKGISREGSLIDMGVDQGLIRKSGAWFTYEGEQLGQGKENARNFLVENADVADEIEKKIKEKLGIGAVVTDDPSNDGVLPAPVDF

CAAX prenyl protease 2 [12] = target: T4, CAAX prenyl protease 2 (Homo sapiens, UniProt Q9Y256); assay: human Rce1 protease inhibitors, dose response, biochemical, yeast membranes, quenched-peptide fluorescence, cherry-pick (AID 588849)
T4 sequence (Q9Y256 whole entry): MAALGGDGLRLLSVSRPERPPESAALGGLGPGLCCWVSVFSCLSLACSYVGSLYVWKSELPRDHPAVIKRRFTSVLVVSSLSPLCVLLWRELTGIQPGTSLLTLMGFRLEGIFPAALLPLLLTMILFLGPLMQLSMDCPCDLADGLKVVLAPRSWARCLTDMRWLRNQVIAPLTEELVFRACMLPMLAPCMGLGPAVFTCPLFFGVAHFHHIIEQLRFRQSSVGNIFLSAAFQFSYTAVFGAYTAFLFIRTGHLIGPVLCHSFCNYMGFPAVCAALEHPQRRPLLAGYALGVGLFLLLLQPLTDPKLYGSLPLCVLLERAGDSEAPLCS

Caspase-6 = target: T5, Caspase-6 (Homo sapiens, UniProt P55212); assay: human caspase-6 inhibitors, dose response, biochemical, VEID-R110 fluorescence, cherry-pick (AID 720632)
T5 sequence (P55212 whole entry): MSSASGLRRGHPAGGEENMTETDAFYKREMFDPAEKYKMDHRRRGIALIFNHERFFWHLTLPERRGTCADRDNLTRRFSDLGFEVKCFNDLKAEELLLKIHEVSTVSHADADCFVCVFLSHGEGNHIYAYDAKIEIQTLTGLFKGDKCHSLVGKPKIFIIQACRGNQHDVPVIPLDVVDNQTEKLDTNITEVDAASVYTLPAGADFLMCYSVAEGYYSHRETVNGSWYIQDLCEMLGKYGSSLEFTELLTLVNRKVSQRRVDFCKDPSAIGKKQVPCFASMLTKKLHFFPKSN

[13] = target: Melanin-concentrating hormone receptor 1 (Homo sapiens, UniProt Q99705); assay: Late-stage fluorescence-based counterscreen for antagonists of the G-protein coupled receptor 7 (GPR7): cell-based dose response assay to identify antagonists of the melanin-concentrating hormone receptor 1 (MCHR1) Set 5.; type: functional
Sequence of Melanin-concentrating hormone receptor 1 (Q99705 whole entry): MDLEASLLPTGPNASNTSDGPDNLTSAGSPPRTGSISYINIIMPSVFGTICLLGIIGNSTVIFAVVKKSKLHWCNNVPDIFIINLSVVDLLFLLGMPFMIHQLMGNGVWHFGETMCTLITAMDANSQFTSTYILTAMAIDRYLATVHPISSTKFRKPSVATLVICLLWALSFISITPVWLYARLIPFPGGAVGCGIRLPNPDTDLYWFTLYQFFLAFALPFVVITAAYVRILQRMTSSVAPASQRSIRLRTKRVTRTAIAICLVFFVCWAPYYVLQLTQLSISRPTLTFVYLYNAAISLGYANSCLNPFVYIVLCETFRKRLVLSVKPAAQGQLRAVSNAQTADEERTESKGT

Aurora kinase A = target: T6, Aurora kinase A (Homo sapiens, UniProt O14965); type: functional;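 also: value from the Navigating the Kinome kinase panel profiling, panel entry STK6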
T6 sequence (O14965 whole entry): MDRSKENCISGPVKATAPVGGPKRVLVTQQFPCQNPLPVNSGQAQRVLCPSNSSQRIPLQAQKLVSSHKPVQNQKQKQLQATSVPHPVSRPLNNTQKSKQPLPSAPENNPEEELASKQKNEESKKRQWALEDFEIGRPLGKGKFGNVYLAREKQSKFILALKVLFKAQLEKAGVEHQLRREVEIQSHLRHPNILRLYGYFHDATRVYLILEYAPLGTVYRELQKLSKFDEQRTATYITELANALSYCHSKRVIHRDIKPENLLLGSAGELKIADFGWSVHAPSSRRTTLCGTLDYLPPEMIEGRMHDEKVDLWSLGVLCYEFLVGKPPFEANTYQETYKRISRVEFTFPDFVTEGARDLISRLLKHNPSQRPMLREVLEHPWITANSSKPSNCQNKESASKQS

[14] = target: Cyclin-dependent kinase 19 (Homo sapiens, UniProt Q9BWU1); assay: Navigating the Kinome. Panel member name: CDC2L6; type: functional
Sequence of Cyclin-dependent kinase 19 (Q9BWU1 whole entry): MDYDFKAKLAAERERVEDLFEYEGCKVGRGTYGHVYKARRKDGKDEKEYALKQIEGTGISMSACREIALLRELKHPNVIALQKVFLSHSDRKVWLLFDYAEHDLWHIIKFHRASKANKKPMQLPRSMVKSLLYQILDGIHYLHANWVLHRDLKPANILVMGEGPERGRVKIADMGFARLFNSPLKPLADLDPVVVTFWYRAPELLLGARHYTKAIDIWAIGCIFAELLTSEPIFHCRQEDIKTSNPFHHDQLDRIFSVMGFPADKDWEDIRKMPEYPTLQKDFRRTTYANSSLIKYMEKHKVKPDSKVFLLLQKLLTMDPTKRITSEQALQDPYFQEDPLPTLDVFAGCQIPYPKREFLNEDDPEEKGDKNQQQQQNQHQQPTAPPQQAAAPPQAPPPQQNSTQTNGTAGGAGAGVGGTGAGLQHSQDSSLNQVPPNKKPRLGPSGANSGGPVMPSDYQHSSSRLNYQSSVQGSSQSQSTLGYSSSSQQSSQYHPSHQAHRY

In the case of O=C1C=C(c2ccc(-c3ccccc3)cc2)C[C@@H](c2ccc3c(c2)OCO3)C1, the EC50 (Insulin-degrading enzyme [1]) is reported as > 54.7 µM (inactive), the EC50 (Insulin-degrading enzyme [2]) is reported as > 54.7 µM (inactive) and the IC50 (HEK293 [3]) is reported as > 89.2 µM (inactive). The EC50 (HEK293 [4]) was > 54.7 µM (inactive).

In the case of CNC(=S)N(Cc1cccs1)Cc1cc2cc(OC)ccc2nc1O, the EC50 (Insulin-degrading enzyme [1]) is reported as > 54.7 µM (inactive), the EC50 (Insulin-degrading enzyme [2]) is reported as > 54.7 µM (inactive) and the IC50 (HEK293 [3]) is reported as > 89.3 µM (inactive). For the same molecule, the EC50 (HEK293 [4]) was > 54.7 µM (inactive).

In the case of Cc1nnc(O)c2c(NC(=O)CSc3nnnn3-c3ccc(O)cc3)oc(C)c12, the AC50 [5] is reported as 19.5 µM (active).

With COc1cc2c(cc1Cl)C(=O)C(F)(c1ccccc1)C(=O)N2 (centres undefined) the EC50 [6] was 7.03 µM (inactive).

In the case of CC(=O)C1=C(O)C(=O)N(c2cc(C(C)(C)C)on2)C1c1ccc(C(C)C)cc1 (centres undefined), the CC50 (Vero) is reported as > 40 µM (active) and the IC50 (Genome polyprotein) is reported as 95.3 µM (active).

In the case of C=CCn1c(SCc2ccc(F)cc2)nnc1-c1sc2nc(C)cc(C)c2c1N, the EC50 [7] is reported as 0.423 µM (active), the EC50 [8] is reported as > 60 µM (not active) and the EC50 [6] is reported as 0.029 µM (active).

With O=C(c1ccc2c(c1)OCO2)N(Cc1cccs1)C1(C(=O)NC2CCCCC2)CCCCC1 the CC50 (Vero) was > 40 µM (active).

For Oc1nc(Nc2ccccn2)cc2ccccc12, the EC50 [9] was 4 µM (active), the EC50 [10] was 6.15 µM (active) and the EC50 (H4) was 36.8 µM (active). The AC50 (CAAX prenyl protease 2 [11]) was > 100 µM (inactive), the EC50 (Protein RecA) was > 380 µM (inactive) and the AC50 (CAAX prenyl protease 2 [12]) was 14 µM (active). For the same molecule, the AC50 (Caspase-6) was 5.89 µM (active).

With Cc1noc(C)c1S(=O)(=O)Nc1ccc2c(c1)CC(=O)N([C@H](C)CO)C[C@H](C)[C@H](CN(C)S(=O)(=O)c1ccc(F)cc1)O2 the AC50 [5] was 16.9 µM (active) and 19.5 µM (active).

With COc1ccc(Oc2c(Cl)cnn(CC(=O)N(c3ccccc3)c3ccccc3)c2=O)cc1 the IC50 [13] was 10.7 µM (inactive).

For Cc1ccc(NC(=O)Nc2ccc(-c3c(Cc4cccnc4)sc4ncnc(N)c34)cc2)cc1, the Ki (Aurora kinase A) was 0.0631 µM (active) and the Ki [14] was > 100 µM (inactive).

For C/C(CC(=O)N1CCCC1)=N\NC(=O)c1cc2ccccc2cc1O, the CC50 (Vero) was 17.5 µM (active) and the AC50 (Caspase-6) was 1.88 µM (active).

Source: ChEMBL document CHEMBL1201862, “PubChem BioAssay data set” (2004)
